“Also recorded” adds a separate entry of the source. Where two headings read alike, the source gives them in different places.
Experiments:
[1] = tested on: IL-1β; assay: IL-1β in lumbar spinal cord tissue of mice after tolerance and hyperalgesia tests (ELISA); conditions: lumbar spinal cord homogenate of mice after 7 days of injections, cobrotoxin of sequence ID NO.1, SD in own column
[2] = tested on: IL-6; assay: IL-6 in lumbar spinal cord tissue of mice after tolerance and hyperalgesia tests (ELISA); conditions: lumbar spinal cord homogenate of mice after 7 days of injections, cobrotoxin of sequence ID NO.1, SD in own column
[3] = tested on: Kunming mice; format: in vivo; conditions: for average pain threshold before injection, difference between physiological saline, cobrotoxin and cobrotoxin+morphine groups: day 5 through day 11
Source text: 100 Kunming mice were subjected to tail pressure tests for 4 days to measure the mechanical pain threshold and the average pain threshold will be set as the baseline pain threshold. • i. Put the mouse gently into the restraint and put its tail under the conical tip of the pain test apparatus. Press the pedal switch, and increase the pressure on the proximal end of the tail evenly until signs of the first pain response (struggle, squeaking) occurs. Record pain-inducing pressure when pain response occurs (units: g) as the value of pain threshold. The pressure was released upon reaching 700 g with no indication of a response to avoid tissue injury. Measurements were also conducted at the middle and distal ends of the tail of the same mouse with a minimum of 30 seconds time intervals between each measurement. • ii. Put the tested mice in a cage and test the next one until every mouse in the group is tested. The average of the three measurements (i.e., the proximal, mid and distal ends of each mouse tail) was used as the pain threshold (g) of each mouse when all mice were subjected to a tail pressure test. • iii. In the following 3 days, all mice underwent repeated measurements of tail pressure pain threshold. • iv. […] The mice were then randomly divided into four groups: namely ‘physiological saline group’, ‘morphine group’, ‘cobrotoxin group’ and ‘cobrotoxin+morphine group’. Each group comprised of 20 mice, which is used for the hyperalgesia and tolerance test of the corresponding drugs in the group's name. Any surplus mice were excluded. • v. Lastly, each group of 20 mice was divided randomly again into two groups, with each group comprising 10 mice, as cobrotoxin of amino acid sequence ID NO.1, and cobrotoxin of amino acid sequence ID NO. 2 will be used for parallel testing
After 4 days of measurement of the mice's baseline pain threshold described in step 1, from the fifth day to the eleventh day, the measurement of pain threshold was performed before the injection. […]

[4] = tested on: Kunming mice; conditions: mouse, in vivo
Source text: To evaluate the therapeutic effects elapidea neurotoxins, one of the reliable morphine induced hyperalgesia/tolerance model in mice (Elhabazi, K et al) was created, and effects of the representative EXAMPLE compounds were investigated on the model.
100 Kunming mice were subjected to tail pressure tests for 4 days to measure the mechanical pain threshold and the average pain threshold will be set as the baseline pain threshold. • i. Put the mouse gently into the restraint and put its tail under the conical tip of the pain test apparatus. Press the pedal switch, and increase the pressure on the proximal end of the tail evenly until signs of the first pain response (struggle, squeaking) occurs. Record pain-inducing pressure when pain response occurs (units: g) as the value of pain threshold. The pressure was released upon reaching 700 g with no indication of a response to avoid tissue injury. Measurements were also conducted at the middle and distal ends of the tail of the same mouse with a minimum of 30 seconds time intervals between each measurement. • ii. Put the tested mice in a cage and test the next one until every mouse in the group is tested. […] The pain threshold of the mice measured by the tail pressure test ranged from 180 g to 220 g. […]

[5] = tested on: SD rats; conditions: rat, in vivo
Procedure: Writhing test was applied to the rats, which is a chemical method used to induce pain of the peripheral origin by injection of irritant principles like acetic acid in rats. Analgesic effect of the test compound is inferred from the decrease in the frequency of writhe.
The aforementioned four groups of rats were injected with sterile saline (NaCl 0.9% 1 ml), morphine (3 mg/kg), cobrotoxin (50 ug/kg), and cobrotoxin (25 ug/kg)+morphine (1.5 mg/kg) respectively.
Following Step1, the aforementioned four groups SD rats were injected with 1.5% acetic acid solution (1 ml/rat) again 150 and 210 minutes after the initial injection of 4 different drugs respectively.

[6] = tested on: NOS; assay: NOS activity in lumbar spinal cord tissue of mice after tolerance and hyperalgesia tests; conditions: lumbar spinal cord homogenate of mice after 7 days of injections, cobrotoxin of sequence ID NO.1, SD in own column
[7] = tested on: NO; assay: NO content in lumbar spinal cord tissue of mice after tolerance and hyperalgesia tests; conditions: lumbar spinal cord homogenate of mice after 7 days of injections, cobrotoxin of sequence ID NO.1, SD in own column

With `CN1CC[C@]23c4c5ccc(O)c4O[C@H]2[C@@H](O)C=C[C@H]3[C@H]1C5` [morphine] the IL-1β [1] was “significantly higher”, the IL-1β ([1]; listed as Morphine) was 16.80 pg/mg protein and the IL-6 [2] was “significantly higher”. The IL-6 ([2]; listed as Morphine) was 19.40 pg/mg protein, the “mean pain threshold before injection (hyperalgesia)” value ([3]; mouse, in vivo) was “significantly lower” and the “average pain threshold one hour after injection, difference within the group between day five, eight and eleven” value [4] was “significant statistical difference”. The “mean pain threshold one hour after injection, course within the group (tolerance)” value [4] was “significantly decreased from day 5 to day 11”, the “analgesic effect in writhing test” value [5] was “lower analgesic effect; also recorded: almost no signs of any analgesic effect” and the “number of writhing, difference within the group between 60, 150 and 210 minutes” value [5] was “significant statistical difference”. The NOS [6] was “significantly higher”, the NOS ([6]; listed as Morphine) was 7.56 U/mg protein and the NO [7] was “significantly higher”. The NO ([7]; listed as Morphine) was 1.61 μmol/g protein.

B1: Cobrotoxin of amino acid sequence ID No.2: mktllltllv vtivcldlgy tlechnqqss qtptttgcsg getncykkrw rdhrgyrter gcgcpsvkng ieinccttdr cnn (protein)
chain: MKTLLLTLLVVTIVCLDLGYTLECHNQQSSQTPTTTGCSGGETNCYKKRWRDHRGYRTERGCGCPSVKNGIEINCCTTDRCNN
modifications: Naja atra or Naja kaouthia
notes: mktllltllv vtivcldlgy tlechnqqss qtptttgcsg getncykkrw rdhrgyrter gcgcpsvkng ieinccttdr cnn
For B1, the “average pain threshold before injection, difference between physiological saline, cobrotoxin and cobrotoxin+morphine groups” value ([3]; FIG. 4, cobrotoxin of sequence ID No.2) was “No significant statistical differences”.

B2: Cobrotoxin of amino acid sequence ID No.1 (protein)
chain: LECHNQQSSQTPTTTGCSGGETNCYKKRWRDHRGYRTERGCGCPSVKNGIEINCCTTDRCNN
modifications: Naja atra or Naja kaouthia
In the case of B2, the “average pain threshold before injection, difference between physiological saline, cobrotoxin and cobrotoxin+morphine groups” value ([3]; FIG. 3, cobrotoxin of sequence ID No.1) is reported as “No significant statistical differences”.

Reference: patent US20210008177A1 (priority 2019, published 2021)
